Measured values: patent US20210317102A1, “INHIBITORS OF INTEGRATED STRESS RESPONSE PATHWAY” (Praxis Biotech LLC, priority 2019, published 2021)

Tests used:
[1] = test system: ATF4 expression, HEK293T cells carrying the ATF4 luciferase reporter; assay: ATF4 expression inhibition assay (ATF4 luciferase reporter); assay type: cell-based; conditions: Homo sapiens, HEK-293T, 100 nM thapsigargin, 3 hours
Method: The ATF4 reporter was prepared by fusing the human full length 5′UTR of ATF4 (NCBI Accession No. BC022088.2) upstream of the firefly luciferase coding sequence lacking the initiator methionine. The fused sequence was cloned into pLenti-EFla-C-Myc-DDK-IRES-Puro cloning vector (Origen #PS100085) using standard methods. Virus production was carried out by using Lenti-X™ Packaging Single Shots Protocol (Clonetech #631276). Viral particles were used to transduce HEK293T cells (ATCC #CRL-3216, ATCC Manassas, Va.), which were subsequently selected with puromycin to generate stable cell line. Cells were maintained at 37° C. and 5% CO2 in DMEM-F12 (Hyclone #SH30023.02) supplemented with 10% heat-inactivated fetal bovine serum (Gibco #16000-044), 2 mM L-glutamine (Gibco #25030-081), 100 U/ml penicillin, and 100 μg/ml streptomycin (Gibco #^15140-122).
HEK293T cells carrying the ATF4 luciferase reporter were plated on 96-well plates (Nunc) at 10,000 cells per well. Cells were treated two days after seeding with 100 nM thapsigargin (Tg) (Sigma-Aldrich #T9033) in the presence of different concentrations of selected compounds ranging from 1 nM to 10 μM. Cells without treatment or cells treated with Tg alone were used as controls. Assay plates containing cells were incubated for 3 hours at 37° C.
Luciferase reactions were performed using Luciferase Assay System (Promega #E1501) as specified by the manufacturer. Luminescence was read with an integration time of 1 s and a gain of 110 using a Cytation-5 multi-mode microplate reader (BioTek). Relative luminescence units were normalized to Tg treatment (0% inhibition) and untreated cells (100% inhibition) and the percentage of ATF4 inhibition was calculated.
Accordingly, inhibition of ATF4 expression as a result of the test compound indicates suppression of the ISR pathway.

[2] = test system: Chinese hamster ovary (CHO) cells; assay: Protein synthesis assay (puromycin incorporation, western blot); assay type: cell-based; conditions: 2 hours, media alone = 100%; for activity at 1 µM: Cricetulus griseus, unstressed CHO cells (without Tg), 1 μM test compound, read-out: % Protein synthesis relative to untreated (1 μM test compound); for % Recovery of protein synthesis (1 μM test compound): stressed CHO cells, 300 nM Tg plus 1 μM test compound, Tg alone = 0%
Method: Chinese hamster ovary (CHO) cells were maintained at 37° C. and 5% CO2 in Dulbecco's Modified Eagle's Media (DMEM) supplemented with 10% fetal bovine serum, 2 mM L-glutamine, 100 U/ml penicillin, and 100 μg/ml streptomycin. After reaching 80% of confluence, cells were detached and seeded on 6 well plates in complete media, allowed to recover overnight and treated for 2 hours with 1 μM of the test compound (to assess protein synthesis levels in unstressed condition), or for 2 hours with 300 nM Tg in the presence of 1 μM of the test compound (to assess the recovery of protein synthesis in a stressed condition). Cells with Tg alone were used as controls.
After the 2 hours treatments, media were replaced by adding 10 μg/ml puromycin (Sigma Aldrich #P8833) in complete media for 30 min. Media were removed and cells were lysed with SDS-PAGE lysis buffer. Lysates were transferred to 1.5 ml tubes and sonicated for 3 min and total protein amount were quantified using BCA Protein Assay Kit (Pierce). Equal amount of protein (30 μg) was loaded on SDS-PAGE gels. Proteins were transferred onto […] PVDF membranes (BioRad) and probed with primary antibodies diluted in Tris-buffered saline supplemented with 0.1% Tween 20 (Merck #S6996184 505) and 3% bovine serum albumin (Rockland #BSA-50).
Puromycin (12D10) (Merck #MABE343) and j-actin (Sigma Aldrich #A5441) antibodies were used as primary antibody. A HRP-conjugated secondary antibody (Rockland) was employed to detect immune-reactive bands using enhanced chemiluminescence (ECL Western Blotting Substrate, Pierce). Quantification of protein bands was done by densitometry using ImageJ software.
Percent increase of protein synthesis in unstressed cells (without Tg treatment) in the presence of media alone or certain test compounds is shown in Table 3. The percentage levels were normalized to the media alone condition, which correspond to 100% protein synthesis.
Percent recovery of protein synthesis in stressed cells (with Tg treatment) due to the test compounds at 1 μM is also shown in Table 3. The levels were normalized to the media alone and Tg alone conditions, which correspond to 100% and 0% respectively.

[3] = test system: male Balb/c mice; assay: Fasting-induced muscle atrophy; assay type: in vivo; conditions: fasted mice, 10 mg/kg oral, compared to vehicle-treated fasted mice
Method: Wild type eight-weeks-old male Balb/c mice obtained from the vivarium Fundación Ciencia & Vida Chile (Santiago, Chile) are used. Mice are housed in independent plastic cages in a room maintained at 25° C. with a 12-h:12-h light:dark cycle.
Twenty-four hours before and during the 2 days of fasted procedures, animals receive oral administration via feeding tubes (15 gauge) of vehicle (50% Polyethylene glycol 400 (Sigma-Aldrich P3265) in distilled water or 10 mg/kg of test compound formulated in vehicle solution.
After 2 days of fasting the animals are sacrificed and muscles are removed from both hindlimbs. Mice with feed and water ad libitum are used as control. […]
Upon collection, muscles are immediately frozen in liquid nitrogen and then stored at −80° C. […] Protein concentration in supernatants is determined using BCA Protein Assay Kit (Pierce). […]
Puromycin (12D10) (Merck Millipore), MuRF-1 (Santa Cruz Biotechnology) and 3-actin (Sigma-Aldrich) antibodies are used as primary antibodies. […] Quantification of protein bands is done by densitometry using ImageJ software.
Expression of the muscle atrophy marker MuRF-1 in quadriceps from fed or fasted mice treated with vehicle or compound 11 is shown in FIG. 1D. The levels were normalized to β-actin expression and fold change was calculated as the level relative to MuRF-1 levels from control mice (Fed) which correspond to 1.

Compound	IC50 [1] [nM]	activity at 1 µM [2] [%]	% Recovery of protein synthesis (1 μM test compound) [2] [%]	Expression of the muscle atrophy marker MuRF-1 in quadriceps [3]
O=C(COc1ccc(Cl)c(F)c1)N[C@H]1CC[C@H](CNC(=O)c2cc3cc(Cl)ccc3o2)CC1 [Compound 11, trans-5-chloro-N-((4-(2-(4-chloro-3-fluorophenoxy)acetamido)cyclohexyl)methyl)benzofuran-2-carboxamide]	0.82	187	298.9	reduction of MuRF-1 expression
CCN1C[C@@H](C(=O)N[C@H]2CC[C@H](NC(=O)COc3ccc(Cl)cc3)CC2)Oc2ccc(Cl)cc21 [Compound 89, trans-(S)-6-chloro-N-(4-(2-(4-chlorophenoxy)acetamido)cyclohexyl)-4-ethyl-3,4-dihydro-2H-benzo[b] [1,4]oxazine-2-carboxamide]	< 1000	134	21.5	
COc1cc(Cl)ccc1OCC(=O)N[C@H]1CC[C@H](NC(=O)COc2ccc(Cl)cc2)CC1 [Compound 90, trans-2-(4-chloro-2-methoxyphenoxy)-N-(4-(2-(4-chlorophenoxy)acetamido)cyclohexyl)acetamide]	61.5	116		
Cc1cc(Cl)ccc1OCC(=O)N[C@H]1CC[C@H](NC(=O)COc2ccc(Cl)cc2)CC1 [Compound 91, trans-2-(4-chloro-2-methylphenoxy)-N-(4-(2-(4-chlorophenoxy)acetamido)cyclohexyl)acetamide]	28.7	94.8		
NC(=O)c1cc(Cl)ccc1OCC(=O)N[C@H]1CC[C@H](NC(=O)COc2ccc(Cl)cc2)CC1 [Compound 92]	52.2	79.7		
O=C(NC[C@H]1CC[C@H](NC(=O)COc2ccc(Cl)cc2)CC1)Nc1ccc(Cl)cc1 [Compound 93, trans-2-(4-chlorophenoxy)-N-(4-((3-(4-chlorophenyl)ureido)methyl)cyclohexyl)acetamide]	3.88	88	69.1	
O=C(COc1ccc(Cl)cc1)N[C@H]1CC[C@H](NC(=O)C2CNc3ccc(Cl)cc3O2)CC1 (stereo partly drawn) [Compound 94, trans-7-chloro-N-(4-(2-(4-chlorophenoxy)acetamido)cyclohexyl)-3,4-dihydro-2H-benzo[b] [1,4]oxazine-2-carboxamide]	35.8	103	58.4	
O=C(COc1ccc(Cl)c(F)c1)NN1CCC(CNC(=O)c2cc3cc(Cl)ccc3o2)CC1 [Compound 95, 5-chloro-N-((1-(2-(4-chloro-3-fluorophenoxy)acetamido)piperidin-4-yl)methyl)benzofuran-2-carboxamide]	2.9	191	133.4	
O=C(NN1CCC(CNC(=O)c2cc3cc(Cl)ccc3o2)CC1)c1ccc2cc(Cl)ccc2n1 [Compound 96, 6-chloro-N-(4-((5-chlorobenzofuran-2-carboxamido)methyl)piperidin-1-yl)quinoline-2-carboxamide]	1.05	258		
O=C(NCC1CCN(NC(=O)c2cc3cc(Cl)ccc3o2)CC1)c1cc2cc(Cl)ccc2o1 [Compound 97, 5-chloro-N-(4-((5-chlorobenzofuran-2-carboxamido)methyl)piperidin-1-yl)benzofuran-2-carboxamide]	0.59	211	249.6	
O=C(COc1ccc(Cl)c(F)c1)NN1CCC(CNC(=O)c2ccc(Cl)cn2)CC1 [Compound 98, 5-chloro-N-((1-(2-(4-chloro-3-fluorophenoxy)acetamido)piperidin-4-yl)methyl)picolinamide]	30.4	-24.9	124.5	
O=C(COc1ccc(Cl)cc1)NN1CCC(CNC(=O)Nc2ccc(Cl)cc2)CC1 [Compound 99, 2-(4-chlorophenoxy)-N-(4-((3-(4-chlorophenyl)ureido)methyl)piperidin-1-yl)acetamide]	14.5	-42	122.3	
